# According to patent publication US20230272012A1, “PEPTIDES AND METHODS OF USE” (REALTA LIFE SCIENCES, INC., priority 2020, published 2023):
# Entries after “also recorded” stand apart in the source; their conditions may differ. Bridge positions count the residues as written; N and C are the ends. Square brackets hold non-standard residues; d marks the D form. Ends that are not written are not given here. Peptide text beside a SMILES is read from it. R8 = C=CCCCCCC[C@@](C)(N)C(=O)O; S5 = C=CCCC[C@](C)(N)C(=O)O; Sar = CNCC(=O)O
# Tests used:
# [1] = Total Antioxidant Capacity (TAC) assay; details: highest peptide concentration 1.5 mM
# Experimental: As previously reported, the TAC (Total Antioxidant Capacity) Assay (Cell Biolabs, Inc, San Diego, Calif.) was used to measure the antioxidant capacity of the PIC1 variants based on the reduction of copper (II) to copper (I). The kit protocol was performed per the manufacturer's recommendations.
# The antioxidant properties for the PIC1 variants were evaluated in a Total Antioxidant Capacity (TAC) assay, as previously reported. Total antioxidant activity over a range of peptide concentrations were determined for the stapled and the D-amino acid peptides based on the PA-I8Sar and PA-C9Sar backbones (FIG. 8A-8D), with the activity of the highest peptide concentration reported (1.5 mM) (FIGS. 4A and B, respectively). […] For the D-amino acid variants, there was variation in the amount of antioxidant activity with the peptides having similar, slightly lower and slightly higher levels of total antioxidant capacity. In contrast, stapled peptides (PA-0135 through -0140) as well as combination of stapled and D-amino acid peptides had reduced total antioxidant capacity (FIG. 4A).
# human neutrophils = assay: NETosis assay (free DNA, PicoGreen); format: cell-based; details: peptide 2 mM; neutrophils stimulated with PMA and H2O2
# Experimental: Free DNA as a marker for NET formation was measured by PicoGreen as previously described. Briefly, 2.0×10^6 human neutrophils in 96-well plates were stimulated with 12 nM PMA and 0.05% H2O2 in RPMI with or without the indicated peptide variants (2 mM) for 2.5 hr in a 37° C. humified incubator supplemented with 5% CO2, allowing NETosis to occur. Neutrophils in RPMI alone served as a negative control. Fifty units of […] (Fisher) were added to each well to allow for digestion of released extracellular DNA for 10 min at 37° C. The preparation was then aliquoted into an adjacent well and mixed 1:1 with prepared PICO green reagent (Fisher). The fluorescence was then quantified on a BioTek microplate reader at excitation 485 nm/emission 528 nm.
# [2] = ABO incompatibility hemolytic assay of complement activity (CH50-type); format: cell-based, human; details: peptide 0.8 mg/ml (~0.5 mM); read-out: decrease of ABO hemolysis compared to PA-I8Sar
# Experimental: FIG. 1A-1B show PIC1 peptides' inhibition of complement activation in an ABO incompatibility assay. […] Inhibition of ABO incompatibility hemolysis in a CH50-type assay. Peptides are at a final concentration of 0.5 mM. Values are represented as a percent of the positive control, which consists of human O sera and AB red blood cells in GVBS^++ buffer. Data are the means of n=3 independent experiments±SEM.
# For hemolytic complement assays, human red blood cells (RBCs) from type AB donors were purified, washed, and standardized to 1.0×10^9 cells/ml, as previously described. Human sera from type O donors at a 15% final concentration was combined with 0.5 mM of the peptides and the volume was brought up to 0.2 ml with GVBS^++ and 5.0×10^7 RBCs. The samples were incubated for 1 hour at 37° C. and then spun at 3,000 rpm for 5 minutes and the supernatant was collected and read at 412 nm. Values are represented as a percent of the positive control, which consists of human O sera and AB red blood cells in GVBS^++ buffer.
# To assess the extent to which the peptide variants inhibit antibody-initiated complement activation, an ABO incompatibility ex vivo assay was utilized in which purified erythrocytes from a ‘type AB+’ donor are incubated with sera from a ‘type O’ subject containing anti-A and anti-B antibodies. Peptides were tested at a concentration of 0.8 mg/ml (˜0.5 mM). […] D-amino acid variants PA-0127 and PA-0133 decreased ABO hemolysis by 20% (P value=0.083) and 25% (P value=0.076), respectively. […]
# complement activity = assay: Hemolytic assay of plasma after IV infusion into rats; format: in vivo, rat; details: IV in Wistar rats; early time points at the highest dose
# Experimental: Male Wistar rats with indwelling jugular catheters were administered PA-0117, -0127, -0130, and -0133 with groups of three animals receiving 20, 200 and 400 mg/kg of the compound as a single, bolus, IV infusion. A control group of rats received an infusion of saline IV. At various time points after infusion (0.5, 2, 5, 20, 60, 120, 240, 480, 1440 minute) an aliquot of blood was drawn and plasma isolated and frozen at −70° C. pending analysis. Animals were sacrificed after the terminal blood draw and a gross necropsy performed.
# PA-0117 could not be analyzed as no functional complement activity was obtained from the plasma samples. […] PA-0117 was analyzed in a C1q target acquisition assay (C1q binding assay) as described in Example 1 (FIG. 9). […] PA-0127 and -0130 levels were determined by coating the plate with the plasma samples and directly detecting the peptides by rabbit antibody raised against PA-0020 (peptide sequence […]; SEQ ID NO: 57) (FIGS. 10B and 11B). […] PA-0133 could not be detected by the available antibodies.
# C1q = biological target: T1, C1q (Homo sapiens, UniProt P02745+P02746+P02747); assay: C1q binding ELISA-type assay; details: half-maximal binding from binding curves
# T1 construct: purchased Complement Technology (Tyler, Tex.)
# T1 sequence (P02745 23-245): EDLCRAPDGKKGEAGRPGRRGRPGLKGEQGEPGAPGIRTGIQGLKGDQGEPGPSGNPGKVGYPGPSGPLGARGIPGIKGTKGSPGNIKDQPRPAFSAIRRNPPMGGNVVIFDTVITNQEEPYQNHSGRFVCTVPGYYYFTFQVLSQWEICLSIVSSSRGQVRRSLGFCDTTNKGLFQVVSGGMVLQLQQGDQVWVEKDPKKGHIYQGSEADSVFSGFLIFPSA
# T1 sequence (P02746 28-253): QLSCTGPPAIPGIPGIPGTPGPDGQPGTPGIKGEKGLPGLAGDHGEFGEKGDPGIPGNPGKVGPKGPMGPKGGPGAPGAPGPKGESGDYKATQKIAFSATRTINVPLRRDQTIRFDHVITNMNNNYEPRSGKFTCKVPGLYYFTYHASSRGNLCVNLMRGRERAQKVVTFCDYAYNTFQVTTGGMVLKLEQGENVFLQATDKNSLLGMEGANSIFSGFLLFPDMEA
# T1 sequence (P02747 29-245): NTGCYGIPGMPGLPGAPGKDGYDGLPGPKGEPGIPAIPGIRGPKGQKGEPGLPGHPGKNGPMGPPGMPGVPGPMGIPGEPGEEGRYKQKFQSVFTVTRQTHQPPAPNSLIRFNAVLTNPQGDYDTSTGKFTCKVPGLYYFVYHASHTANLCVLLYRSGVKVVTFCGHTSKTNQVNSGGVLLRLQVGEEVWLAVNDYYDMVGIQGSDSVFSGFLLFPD
# Experimental: The C1q binding assay was performed as previously described. Briefly, an Immunlon-2 HB ELISA plate was coated with 1 μg/ml C1q in bicarbonate buffer overnight at 4° C. The plates were washed with PBS-T (phosphate buffered saline+0.1% Tween) and then blocked with 1% gelatin/PBS for 2 hours at room temperature. After washing, the plates were incubated with the peptides starting at 2.5 mg/ml and then serially diluted in 1% gelatin/PBS for 1 hour at room temperature followed by washing. Plates were then probed with rabbit antibody raised against the lead peptide […] (SEQ ID NO: 2) that lacked PEGylation at 1:1000 in 1% gelatin/PBS for 1 hour at room temperature followed by a goat anti-rabbit HRP (Sigma Aldrich, St Louis, Mo.) at 1:1,000 in 1% gelatin/PBS for 1 hour at room temperature with a washing step in between. After addition of TMB substrate solution to the wells, the reaction was stopped using 1N H2SO4, and the plate read on a BioTek Synergy HT plate reader at 450 nm.
# The astrovirus capsid protein and the PIC1 molecules derived from it inhibit classical complement pathway activation by binding to the pattern recognition molecule C1q. The inventors next tested peptide variant binding to C1q in an ELISA-type assay in which C1q is used as the capture substrate and bound peptide detected with a rabbit polyclonal antibody against the peptide portion of PA-dPEG24 ([…]-d24; SEQ ID NO: 3). Binding curves were derived for the stapled and D-amino acid peptides based on the PA-I8Sar and PA-C9Sar (FIG. 6A-6D) backbone, from which half-maximal binding concentrations were calculated (FIGS. 2A and B, respectively). […] For the D-amino acid variants, all peptides in which C1q binding was detected, had variable but increased binding to C1q compared to PA-I8Sar (FIG. 2A). For the peptides based on the PA-C9Sar backbone, with the exception of PA-0148, C1q was bound to the same degree or greater than the parent peptide (FIG. 2B).
# The inventors also assessed the ability of RLS-0127* and RLS-0133* to inhibit MPO activity as determined by inhibition of oxidation of TMB in a plate-based assay. […] Additionally, the inventors assessed the ability of RLS-0127* and RLS-0133* to bind C1q in a plate-based assay in which C1q is coated on the plate and increasing amounts of the peptides are added, followed by primary antibody to the peptides and secondary antibody conjugated to HRP. The plate was then incubated with TMB to give a […] signal that is detected at a wavelength of 450 nm in a plate reader.
molecule,measurement,setting,value
IALILR8P(Sar)CCQES5AA (IALIL[R8]P[Sar]CCQE[S5]AA; bridges not given here; also: R8/S5 6-13 may or may not be stapled) [PA-0114],total antioxidant capacity compared with PA-I8Sar,[1],reduction in total antioxidant capacity
IALR8LEPI(Sar)CS5ERAA (IAL[R8]LEPI[Sar]C[S5]ERAA; bridges not given here; also: R8/S5 4-11 may or may not be stapled) [PA-0147],total antioxidant capacity compared with PA-C9Sar,[1],maintained similar activity
"CC[C@H](C)[C@H](N)C(=O)N[C@@H](C)C(=O)N[C@@H](CC(C)C)C(=O)N[C@H](C(=O)N[C@@H](CC(C)C)C(=O)N[C@@H](CCC(=O)O)C(=O)N1CCC[C@H]1C(=O)N(C)CC(=O)N[C@@H](CS)C(=O)N[C@@H](CS)C(=O)N[C@@]1(C)CCCC=CCCC[C@@](C)(C(=O)O)NC(=O)[C@H](C)NC(=O)[C@H](CCCNC(=N)N)NC(=O)[C@H](CCC(=O)O)NC1=O)[C@@H](C)CC [PA-0116, IALILEP(Sar)CCS5ERAS5] (H-IALILEP[Sar]CC[S5]ERA[S5]-OH; staple 11-15)",total antioxidant capacity compared with PA-I8Sar,[1],increased activity; also recorded: superior antioxidant activity
"CC[C@H](C)[C@H](N)C(=O)N[C@@H](C)C(=O)N[C@@H](CC(C)C)C(=O)N[C@H](C(=O)N[C@@H](CC(C)C)C(=O)N[C@@H](CCC(=O)O)C(=O)N1CCC[C@H]1C(=O)N(C)CC(=O)N[C@@H](CS)C(=O)N[C@@H](CS)C(=O)N[C@@H](CCC(N)=O)C(=O)N[C@@H](CCC(=O)O)C(=O)N[C@@H](CCCNC(=N)N)C(=O)N[C@@H](C)C(=O)N[C@H](C)C(=O)O)[C@@H](C)CC [PA-0133, IALILEP(Sar)CCQERAdA] (HELM PEPTIDE1{I.A.L.I.L.E.P.[Sar].C.C.Q.E.R.A.[dA]}$$$$V2.0)",reduction of free DNA (marker of NETosis),human neutrophils,reduction in free DNA similar to that of the PA-I8Sar control; also recorded: ability to inhibit NET formation
same,decrease in ABO hemolysis compared to reference peptide,[2],25%
same,inhibition of complement activity in the hemolytic assay of rat plasma,complement activity,inhibition of complement activity
IALILS5P(Sar)CS5QERAA (IALIL[S5]P[Sar]C[S5]QERAA; staple 6-10) [PA-0119],binding to C1q compared with PA-I8Sar,C1q,markedly increased binding to C1q
